Data taken from ChEMBL document CHEMBL1781941, “Synthesis and antitumor activity of 5-[1-(3-(dimethylamino)propyl)-5-halogenated-2-oxoindolin-(3Z)-ylidenemethyl]-2,4-dimethyl-1H-pyrrole-3-carboxamides” (Bioorg Med Chem Lett, 2011).

Columns and labels:
[1] = test system: IM-9; test: Antitumor activity against human IM9 cells; format: functional, cell-based
[2] = test system: A549; test: Antitumor activity against human A549 cells; format: functional, cell-based
[3] = test system: HL-60; test: Antitumor activity against human HL60 cells; format: functional, cell-based
[4] = test system: MDA-MB-231; test: Antitumor activity against human MDA-MB-231 cells; format: functional, cell-based
[5] = test system: K562; test: Antitumor activity against human K562 cells; format: functional, cell-based
[6] = test system: HUVEC; test: Inhibition of VEGF-induced cell proliferation in HUVEC by MTT assay; format: functional, cell-based; conditions: Homo sapiens
[7] = test system: HUVEC; test: Inhibition of bFGF-induced cell proliferation in HUVEC by MTT assay; format: functional, cell-based; conditions: Homo sapiens
[8] = test system: IM-9; test: Ratio of Sunitinib IC50 to compound IC50 for human IM9 cells; format: functional
[9] = test system: A549; test: Ratio of Sunitinib IC50 to compound IC50 for human A549 cells; format: functional
[10] = test system: MDA-MB-231; test: Ratio of Sunitinib IC50 to compound IC50 for human MDA-MB-231 cells; format: functional
[11] = test system: K562; test: Ratio of Sunitinib IC50 to compound IC50 for human K562 cells; format: functional

| IC50 [1] | IC50 [2] | IC50 [3] | IC50 [4] | IC50 [5] | Structure (SMILES) | IC50 [6] | IC50 [7] | Ratio IC50 [8] | Ratio IC50 [9] | Ratio IC50 [10] | Ratio IC50 [11] |
| --- | --- | --- | --- | --- | --- | --- | --- | --- | --- | --- | --- |
| 9.36 µM | 14 µM | 7.82 µM | 11.5 µM | 6.58 µM | Cc1[nH]c(/C=C2\C(=O)N(CCCN(C)C)c3ccc(Cl)cc32)c(C)c1C(=O)N1CCCC1 | 3.92 µM | 4.65 µM | – | – | – | – |
| 17.9 µM | 25.2 µM | 14.8 µM | 19.2 µM | 13.6 µM | Cc1[nH]c(/C=C2\C(=O)N(CCCN(C)C)c3ccc(F)cc32)c(C)c1C(=O)N(C)C | 5.23 µM | 19.9 µM | – | – | – | – |
| 9.42 µM | 16 µM | 7.3 µM | 12 µM | 6.74 µM | Cc1[nH]c(/C=C2\C(=O)N(CCCN(C)C)c3ccc(Cl)cc32)c(C)c1C(=O)N(C)C | 1.62 µM | 8.27 µM | – | – | – | – |
| 14.1 µM | 29.9 µM | 10.7 µM | 13.7 µM | 4.88 µM | CCN(CC)C(=O)c1c(C)[nH]c(/C=C2\C(=O)N(CCCN(C)C)c3ccc(F)cc32)c1C | 3.96 µM | 10.5 µM | – | – | – | – |
| 6.28 µM | 13.1 µM | 4.02 µM | 6.82 µM | 2.07 µM | CCN(CC)C(=O)c1c(C)[nH]c(/C=C2\C(=O)N(CCCN(C)C)c3ccc(Cl)cc32)c1C | 2.9 µM | 4.87 µM | – | – | – | – |
| 19.1 µM | 21.2 µM | 11.9 µM | 13.3 µM | 11.6 µM | Cc1[nH]c(/C=C2\C(=O)N(CCCN(C)C)c3ccc(F)cc32)c(C)c1C(=O)N1CCCC1 | 6.56 µM | 11.3 µM | – | – | – | – |
| 4.83 µM | 18.7 µM | 4.39 µM | 11.5 µM | 4.09 µM | Cc1[nH]c(/C=C2\C(=O)N(CCCN(C)C)c3ccc(F)cc32)c(C)c1C(=O)N1CCCCC1 | 4.06 µM | 5.27 µM | – | – | – | – |
| 4.49 µM | 7.33 µM | 3.99 µM | 5.68 µM | 2.14 µM | Cc1[nH]c(/C=C2\C(=O)N(CCCN(C)C)c3ccc(Cl)cc32)c(C)c1C(=O)N1CCCCC1 | 1.31 µM | 2.04 µM | – | – | – | – |
| 0.47 µM | 3.11 µM | 1.07 µM | 2.29 µM | 0.52 µM | CCN(CC)CCNC(=O)c1c(C)[nH]c(/C=C2\C(=O)N(CCCN(C)C)c3ccc(Cl)cc32)c1C.Cl.Cl.Cl | 2.72 µM | 3.08 µM | 2.1 | 2.1 | 2.1 | 4.6 |
| 1.63 µM | 5.08 µM | 1.82 µM | 2.86 µM | 1.33 µM | CCN(CC)CCNC(=O)c1c(C)[nH]c(/C=C2\C(=O)N(CCCN(C)C)c3ccc(F)cc32)c1C | 0.71 µM | 1.68 µM | – | – | – | – |
| 0.45 µM | 3.52 µM | 1.17 µM | 2.44 µM | 0.53 µM | Cc1[nH]c(/C=C2\C(=O)N(CCCN(C)C)c3ccc(Cl)cc32)c(C)c1C(=O)NCCN(C)C | 1.11 µM | 3.36 µM | – | – | – | – |
| 1.47 µM | 6.78 µM | 3.56 µM | 5.06 µM | 1.41 µM | Cc1[nH]c(/C=C2\C(=O)N(CCCN(C)C)c3ccc(Cl)cc32)c(C)c1C(=O)N1CCN(C)CC1 | 1.34 µM | 2 µM | – | – | – | – |
| 2.25 µM | 8.88 µM | 2.62 µM | 3.46 µM | 2.45 µM | CCN1CCN(C(=O)c2c(C)[nH]c(/C=C3\C(=O)N(CCCN(C)C)c4ccc(Cl)cc43)c2C)CC1 | 1.02 µM | 1.77 µM | – | – | – | – |
| 1.36 µM | 2.94 µM | 2.73 µM | 2.14 µM | 1.46 µM | Cc1[nH]c(/C=C2\C(=O)N(CCCN(C)C)c3ccc(F)cc32)c(C)c1C(=O)NCCN(C)C | 0.48 µM | 1.42 µM | – | – | – | – |
| 4.06 µM | 11.1 µM | 7.59 µM | 9 µM | 5.27 µM | Cc1[nH]c(/C=C2\C(=O)N(CCCN(C)C)c3ccc(F)cc32)c(C)c1C(=O)N1CCN(C)CC1 | 2.99 µM | 5.64 µM | – | – | – | – |
| 7.26 µM | 13.7 µM | 13.4 µM | 8.09 µM | 5.98 µM | CCN1CCN(C(=O)c2c(C)[nH]c(/C=C3\C(=O)N(CCCN(C)C)c4ccc(F)cc43)c2C)CC1 | 1.58 µM | 3.38 µM | – | – | – | – |
| 1.35 µM | 6.61 µM | 3.53 µM | 4.51 µM | 2.41 µM | CCN(CC)CCNC(=O)c1c(C)[nH]c(/C=C2\C(=O)Nc3ccc(F)cc32)c1C [SUNITINIB] | 2.75 µM | 4.04 µM | – | – | – | – |
